From ChEMBL document CHEMBL1201862, “PubChem BioAssay data set” (2004)
Active and inactive are the calls of the source.

Legend:
[1] = molecular target: Low molecular weight phosphotyrosine protein phosphatase (Homo sapiens, UniProt P24666); format: functional; conditions: read-out: IC50_Mean;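 also: Dose-response confirmation assay measuring inhibition of LMPTP enzyme activity by fluorescence intensity read-out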
[2] = NIH3T3 cell viability loss – ATP luminescence, mouse fibroblasts, counter-screen, dose response (AID 2010); format: functional, cell-based;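 also: cells exposed to compound for about 90 hours before reading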
[3] = molecular target: T1, Fatty acid synthase (Homo sapiens, UniProt P49327); assay: inhibition of human FAS-TE enzyme activity – biochemical, endpoint fluorescence intensity, uHTS hits, dose response (AID 624327); format: functional;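 also: fluorescence from hydrolysis of an O-methyl fluorescein acyl ester substrate by the enzyme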
T1 sequence (P49327 whole entry): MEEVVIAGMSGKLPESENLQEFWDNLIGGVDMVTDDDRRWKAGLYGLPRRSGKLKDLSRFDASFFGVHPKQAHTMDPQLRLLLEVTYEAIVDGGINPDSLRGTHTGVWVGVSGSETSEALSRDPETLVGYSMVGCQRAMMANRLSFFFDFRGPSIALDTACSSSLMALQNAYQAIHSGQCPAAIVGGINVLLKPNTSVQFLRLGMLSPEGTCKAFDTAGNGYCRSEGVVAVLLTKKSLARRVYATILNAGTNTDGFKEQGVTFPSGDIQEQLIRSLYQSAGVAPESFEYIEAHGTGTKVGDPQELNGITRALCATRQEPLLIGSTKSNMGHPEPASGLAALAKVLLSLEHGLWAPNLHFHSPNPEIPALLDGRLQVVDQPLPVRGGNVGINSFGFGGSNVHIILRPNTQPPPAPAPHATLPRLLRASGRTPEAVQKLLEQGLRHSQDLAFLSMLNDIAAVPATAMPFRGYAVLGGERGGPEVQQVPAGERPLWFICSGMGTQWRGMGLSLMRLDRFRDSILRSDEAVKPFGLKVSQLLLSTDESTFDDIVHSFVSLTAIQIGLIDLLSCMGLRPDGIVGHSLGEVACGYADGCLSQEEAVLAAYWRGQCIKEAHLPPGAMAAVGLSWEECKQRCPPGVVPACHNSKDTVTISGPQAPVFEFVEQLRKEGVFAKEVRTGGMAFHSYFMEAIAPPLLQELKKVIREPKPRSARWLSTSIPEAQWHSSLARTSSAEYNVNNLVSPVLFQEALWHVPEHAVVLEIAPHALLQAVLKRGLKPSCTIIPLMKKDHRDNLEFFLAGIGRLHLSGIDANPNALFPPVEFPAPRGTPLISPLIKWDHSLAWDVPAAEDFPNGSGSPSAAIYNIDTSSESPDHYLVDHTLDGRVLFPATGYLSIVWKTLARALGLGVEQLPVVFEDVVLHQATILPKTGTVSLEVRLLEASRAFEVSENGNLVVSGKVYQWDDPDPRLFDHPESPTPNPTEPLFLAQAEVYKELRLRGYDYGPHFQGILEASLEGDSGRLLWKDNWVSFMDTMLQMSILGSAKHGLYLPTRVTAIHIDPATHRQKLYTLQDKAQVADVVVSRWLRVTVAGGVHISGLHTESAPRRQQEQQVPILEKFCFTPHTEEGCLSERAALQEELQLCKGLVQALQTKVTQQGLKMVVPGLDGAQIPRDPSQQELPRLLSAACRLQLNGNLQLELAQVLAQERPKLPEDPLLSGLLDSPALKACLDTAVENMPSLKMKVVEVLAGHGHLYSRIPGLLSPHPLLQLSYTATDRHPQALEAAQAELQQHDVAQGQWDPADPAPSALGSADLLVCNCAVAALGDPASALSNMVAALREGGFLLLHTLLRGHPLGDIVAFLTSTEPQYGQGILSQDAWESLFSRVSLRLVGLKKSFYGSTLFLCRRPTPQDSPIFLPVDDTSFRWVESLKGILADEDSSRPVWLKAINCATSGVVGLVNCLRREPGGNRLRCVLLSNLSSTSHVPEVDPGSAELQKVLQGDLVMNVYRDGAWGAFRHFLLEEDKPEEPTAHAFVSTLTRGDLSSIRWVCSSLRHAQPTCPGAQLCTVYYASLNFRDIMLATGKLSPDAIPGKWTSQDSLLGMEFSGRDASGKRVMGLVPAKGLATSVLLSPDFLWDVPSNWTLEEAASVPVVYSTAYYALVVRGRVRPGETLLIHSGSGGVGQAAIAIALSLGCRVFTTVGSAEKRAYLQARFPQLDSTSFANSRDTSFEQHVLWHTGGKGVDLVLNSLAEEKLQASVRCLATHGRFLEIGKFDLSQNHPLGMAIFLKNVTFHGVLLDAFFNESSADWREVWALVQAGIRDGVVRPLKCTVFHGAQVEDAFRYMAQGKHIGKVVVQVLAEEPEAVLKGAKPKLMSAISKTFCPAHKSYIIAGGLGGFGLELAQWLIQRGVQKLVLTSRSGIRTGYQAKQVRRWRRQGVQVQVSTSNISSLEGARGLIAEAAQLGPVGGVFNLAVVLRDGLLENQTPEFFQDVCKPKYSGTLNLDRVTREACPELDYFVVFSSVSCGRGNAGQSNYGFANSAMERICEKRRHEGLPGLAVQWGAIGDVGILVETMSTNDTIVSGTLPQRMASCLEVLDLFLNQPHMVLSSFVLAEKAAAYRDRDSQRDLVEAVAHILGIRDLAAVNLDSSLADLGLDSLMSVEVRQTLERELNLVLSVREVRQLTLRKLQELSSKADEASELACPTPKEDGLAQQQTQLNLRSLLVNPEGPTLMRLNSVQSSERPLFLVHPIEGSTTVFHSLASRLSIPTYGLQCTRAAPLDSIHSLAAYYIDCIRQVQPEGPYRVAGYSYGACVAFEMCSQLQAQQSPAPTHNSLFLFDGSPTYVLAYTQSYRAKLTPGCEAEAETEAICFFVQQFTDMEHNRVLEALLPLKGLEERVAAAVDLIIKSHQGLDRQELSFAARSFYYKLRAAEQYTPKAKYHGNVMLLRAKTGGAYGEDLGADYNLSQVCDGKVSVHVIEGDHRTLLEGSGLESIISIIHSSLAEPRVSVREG

[4] = molecular target: T1, Fatty acid synthase; assay: inhibition of human FAS-TE enzyme activity – biochemical, kinetic fluorescence intensity, dose response (AID 624326); format: functional;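 also: rate of fluorescence rise from hydrolysis of a fluorogenic O-methyl fluorescein ester substrate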
[5] = molecular target: Photoreceptor-specific nuclear receptor (Homo sapiens, UniProt Q9Y5X4); format: functional, cell-based;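 also: CHO-S cells with Gal4-NCOR and VP16-NR2E3 two-hybrid luciferase reporter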
[6] = molecular target: T2, Streptokinase A (Streptococcus pyogenes serotype M1, UniProt P10520); assay: viability-normalized secreted streptokinase activity reduction – plasminogen activation absorbance, OD405, dose response (AID 1914); format: functional, Streptococcus pyogenes M1 GAS;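 also: secreted streptokinase activity via plasminogen activation per viability signal from cell pellet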
T2 sequence (P10520 whole entry): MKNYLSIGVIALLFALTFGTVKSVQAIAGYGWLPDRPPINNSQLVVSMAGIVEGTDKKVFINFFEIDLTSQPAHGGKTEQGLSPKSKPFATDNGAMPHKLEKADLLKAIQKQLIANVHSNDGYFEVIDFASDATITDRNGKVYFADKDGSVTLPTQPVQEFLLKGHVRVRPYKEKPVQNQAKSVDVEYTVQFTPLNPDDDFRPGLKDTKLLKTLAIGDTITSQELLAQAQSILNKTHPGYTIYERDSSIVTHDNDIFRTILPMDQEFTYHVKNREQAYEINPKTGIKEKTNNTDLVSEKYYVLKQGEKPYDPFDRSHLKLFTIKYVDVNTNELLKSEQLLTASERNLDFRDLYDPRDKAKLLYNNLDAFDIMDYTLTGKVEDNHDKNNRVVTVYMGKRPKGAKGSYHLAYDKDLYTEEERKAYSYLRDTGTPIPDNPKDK

[7] = test system: Streptococcus; assay: GAS UMAA2166 growth inhibition – luminescence, BacTiterGlo, counter-screen for streptokinase expression inhibitor project, dose response (AID 1915); format: functional, organism-based;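 also: potency for reduction of bacterial viability or growth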
[8] = test system: Streptococcus sp. 'group A'; assay: Streptococcus pyogenes SK(-)GAS viability under kanamycin – luminescence, BacTiterGlo, confirmation, counter-screen for streptokinase expression inhibitor project, dose response (AID 1900); format: functional, organism-based
[9] = Trypanosoma cruzi growth suppression in host cells – NIH3T3 host cells, beta-gal luminescence, confirmation (AID 2044); format: functional, cell-based;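 also: intracellular parasites grown in NIH/3T3 mouse fibroblasts as host cells; luminescent beta-galactosidase reporter signal from transgenic T. cruzi replicating inside host cells; inhibitors lower the luminescence signal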
[10] = molecular target: T3, Polyadenylate-binding protein 1 (Homo sapiens, UniProt P11940); assay: MLLE domain peptide-binding blockers, IC50 – biochemical, fluorescence polarization, FITC-PAM2 peptide, dose response (AID 602259); format: functional; conditions: read-out: IC50_Mean
T3 sequence (P11940 whole entry, the tested form may be a part): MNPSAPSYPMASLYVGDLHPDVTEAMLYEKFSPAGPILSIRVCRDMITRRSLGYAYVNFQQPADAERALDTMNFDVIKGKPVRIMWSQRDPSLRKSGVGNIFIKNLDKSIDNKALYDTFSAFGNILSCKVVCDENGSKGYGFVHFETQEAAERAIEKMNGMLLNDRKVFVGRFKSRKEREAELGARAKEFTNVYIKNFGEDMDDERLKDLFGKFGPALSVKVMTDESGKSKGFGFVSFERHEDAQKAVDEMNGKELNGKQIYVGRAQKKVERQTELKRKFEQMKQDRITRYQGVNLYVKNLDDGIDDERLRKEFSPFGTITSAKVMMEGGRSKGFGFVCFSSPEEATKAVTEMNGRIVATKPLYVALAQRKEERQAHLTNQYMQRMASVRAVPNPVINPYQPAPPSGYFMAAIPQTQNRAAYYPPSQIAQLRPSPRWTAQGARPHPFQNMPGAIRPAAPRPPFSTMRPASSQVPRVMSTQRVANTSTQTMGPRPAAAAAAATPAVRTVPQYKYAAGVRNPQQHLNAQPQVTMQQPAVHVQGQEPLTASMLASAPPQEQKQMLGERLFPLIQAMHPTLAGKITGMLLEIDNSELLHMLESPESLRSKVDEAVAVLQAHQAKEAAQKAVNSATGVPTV

[11] = molecular target: T3, Polyadenylate-binding protein 1; assay: MLLE binding blockers, Cy5 peptide tracer – biochemical, fluorescence polarization, Cy5-PAM2 peptide, secondary, miRNA deadenylation inhibitor project, dose response (AID 602260); format: functional; conditions: read-out: IC50_Mean
[12] = test system: HEK293; assay: membrane integrity loss in HEK cells – cell-based, fluorescence, cytotoxicity control for IDE activator project, dose response (AID 588440); format: functional; conditions: Homo sapiens;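 also: cytotoxicity by LDH release measuring loss of membrane integrity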
[13] = viability of HCT116 lacking mutant beta-catenin – cell-based, human colon tumor, dose response (AID 1045); format: functional;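 also: HCT116 colon tumor cells with beta catenin knocked out; cells exposed to compound for 60 hours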
[14] = alpha-synuclein stem-loop luciferase translation blockers – H4 neuroglioma cells, luminescence, confirmation (AID 1988); format: functional, cell-based
[15] = viability of PTEN-deleted HCT116 cells – cell-based, HCT116 PTEN knockout, dose response (AID 1047); format: functional;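 also: HCT116 colon tumor cells with PTEN knocked out; cells exposed to compound for 60 hours before readout; potency for loss of cell viability measured by luminescence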
[16] = molecular target: T4, Insulin-degrading enzyme (Homo sapiens, UniProt P14735); assay: recombinant IDE activation, cell-free – biochemical, fluorescence polarization, counter-screen for IDE activator project, dose response (AID 588681)
T4 sequence (P14735 whole entry): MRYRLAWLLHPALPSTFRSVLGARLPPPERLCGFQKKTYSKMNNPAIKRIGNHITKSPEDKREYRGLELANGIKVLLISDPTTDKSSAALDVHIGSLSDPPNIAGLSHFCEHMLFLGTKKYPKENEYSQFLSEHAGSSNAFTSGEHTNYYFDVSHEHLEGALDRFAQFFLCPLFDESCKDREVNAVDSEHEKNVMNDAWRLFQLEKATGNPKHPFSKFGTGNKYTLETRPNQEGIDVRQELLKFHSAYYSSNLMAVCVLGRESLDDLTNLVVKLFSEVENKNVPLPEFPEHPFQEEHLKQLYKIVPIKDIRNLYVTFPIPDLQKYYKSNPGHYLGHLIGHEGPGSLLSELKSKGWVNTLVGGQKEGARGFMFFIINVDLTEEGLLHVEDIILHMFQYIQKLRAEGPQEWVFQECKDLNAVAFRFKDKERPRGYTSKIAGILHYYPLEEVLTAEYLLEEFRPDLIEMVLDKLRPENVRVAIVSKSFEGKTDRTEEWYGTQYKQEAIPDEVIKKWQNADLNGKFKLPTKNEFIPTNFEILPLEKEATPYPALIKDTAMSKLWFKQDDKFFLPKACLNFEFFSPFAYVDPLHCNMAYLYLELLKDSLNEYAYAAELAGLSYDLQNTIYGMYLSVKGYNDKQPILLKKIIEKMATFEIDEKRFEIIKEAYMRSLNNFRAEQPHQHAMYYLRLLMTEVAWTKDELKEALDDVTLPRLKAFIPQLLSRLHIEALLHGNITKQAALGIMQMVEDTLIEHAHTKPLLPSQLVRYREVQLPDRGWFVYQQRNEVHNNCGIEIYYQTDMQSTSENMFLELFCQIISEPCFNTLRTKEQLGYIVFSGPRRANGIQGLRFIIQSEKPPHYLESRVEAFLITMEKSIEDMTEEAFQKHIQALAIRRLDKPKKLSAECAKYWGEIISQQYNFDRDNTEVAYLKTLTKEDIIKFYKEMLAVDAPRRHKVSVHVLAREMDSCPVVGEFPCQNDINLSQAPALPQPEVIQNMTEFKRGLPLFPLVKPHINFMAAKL

[17] = Luminescence Cell-Based Dose Response HTS to Identify Inhibitors of 5'UTR Stem-Loop Driven Prion Protein mRNA Translation in H4 Neuroglioblastoma Cells. [Related pubchem assays: 1827 (Project Summary), 1813 (Primary HTS)]; format: functional
[18] = HEK-293T viability loss after treatment – luminescence, T-cell screen hits, cytotoxicity control for TCR NF-kB inhibitor project, dose response (AID 489026); format: functional, cell-based;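 also: cells exposed to compound about 14 hours before the viability readout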
[19] = molecular target: T4, Insulin-degrading enzyme; assay: cellular IDE activation of Abeta substrate cleavage – fluorescence polarization, HEK cells, dose response (AID 588439); format: functional, cell-based
[20] = molecular target: Neurotensin receptor type 1 (Homo sapiens, UniProt P30989); format: functional;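 also: Image-based confirmatory dose-response assay measuring agonist activity at NTR1; NTR1-expressing U2OS osteosarcoma cells imaged for beta-arrestin GFP spot formation; agonist potency where compounds increase beta-arrestin recruitment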
[21] = test system: INS1; assay: INS-1E survival protection against cytokine death – cell-based, luminescence, retest, dose response (AID 449756); format: functional; conditions: Rattus norvegicus;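 also: cell death triggered by IL-1 beta plus TNF-alpha plus IFN-gamma mixture; protective hits raise ATP signal compared with cytokine alone wells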
[22] = test system: HEK293; assay: optical interference in Abeta FP readout, dose response, artefact control for IDE activator project, biochemical, fluorescence polarization (AID 588442); format: functional, cell-based; conditions: Homo sapiens
[23] = luciferase reporter signal suppression in cells – H4 neuroglioma cells, luminescence, dose response (AID 1990); format: functional, cell-based
[24] = molecular target: Melanocortin receptor 4 (Homo sapiens, UniProt P32245); format: functional, cell-based;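 also: Cell-based assay with luminescence read-out, confirmatory dose-response testing for agonist activity of biased ligands at MC4R; human U2OS cells with tagged receptor and beta-arrestin; potency of agonists that increase receptor coupling to beta-arrestin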
Melanocortin receptor 4, sequence (P32245 whole entry): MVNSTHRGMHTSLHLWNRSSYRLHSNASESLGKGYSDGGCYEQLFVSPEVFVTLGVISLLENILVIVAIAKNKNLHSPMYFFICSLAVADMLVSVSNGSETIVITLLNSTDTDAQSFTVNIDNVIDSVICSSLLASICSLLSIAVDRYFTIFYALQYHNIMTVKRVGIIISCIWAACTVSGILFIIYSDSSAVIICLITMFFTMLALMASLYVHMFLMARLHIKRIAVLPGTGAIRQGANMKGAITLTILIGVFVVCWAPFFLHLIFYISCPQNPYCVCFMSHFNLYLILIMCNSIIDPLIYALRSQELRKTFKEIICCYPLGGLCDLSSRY

[25] = test system: H9c2; assay: cells; format: functional, cell-based; conditions: Rattus norvegicus, H9c2, Myocardium;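 also: confirmatory concentration-response retest of ultra-high-throughput screening hits for modulation of myocardial damage; cell death induced by hydrogen peroxide oxidative stress; compound pretreatment for 60 min then peroxide exposure for 2 h; potency is for protecting the cells against peroxide damage rather than for killing them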
[26] = molecular target: T5, Ubiquitin-conjugating enzyme E2 N (Homo sapiens, UniProt P61088); format: functional
T5 sequence (P61088 whole entry): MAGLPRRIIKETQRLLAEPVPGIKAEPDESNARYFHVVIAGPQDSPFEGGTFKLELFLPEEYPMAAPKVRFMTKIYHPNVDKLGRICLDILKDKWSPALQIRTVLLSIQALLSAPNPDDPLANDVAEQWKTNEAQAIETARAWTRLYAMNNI

[27] = molecular target: T6, Bcl-2-related protein A1 (Mus musculus, UniProt Q07440); format: functional;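 also: confirmatory dose–response counterscreen on Bfl-1, used to check hits from a UBC13 polyubiquitin inhibitor campaign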
T6 sequence (Q07440 whole entry): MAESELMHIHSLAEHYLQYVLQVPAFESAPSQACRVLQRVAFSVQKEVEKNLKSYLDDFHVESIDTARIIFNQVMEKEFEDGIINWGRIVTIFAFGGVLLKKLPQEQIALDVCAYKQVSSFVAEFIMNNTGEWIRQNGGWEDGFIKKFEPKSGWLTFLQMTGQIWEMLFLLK

[28] = molecular target: T5, Ubiquitin-conjugating enzyme E2 N; format: functional; remark: listed apart in the source
[29] = molecular target: T7, Apoptotic protease-activating factor 1 (Homo sapiens, UniProt O14727); format: functional
T7 sequence (O14727 whole entry): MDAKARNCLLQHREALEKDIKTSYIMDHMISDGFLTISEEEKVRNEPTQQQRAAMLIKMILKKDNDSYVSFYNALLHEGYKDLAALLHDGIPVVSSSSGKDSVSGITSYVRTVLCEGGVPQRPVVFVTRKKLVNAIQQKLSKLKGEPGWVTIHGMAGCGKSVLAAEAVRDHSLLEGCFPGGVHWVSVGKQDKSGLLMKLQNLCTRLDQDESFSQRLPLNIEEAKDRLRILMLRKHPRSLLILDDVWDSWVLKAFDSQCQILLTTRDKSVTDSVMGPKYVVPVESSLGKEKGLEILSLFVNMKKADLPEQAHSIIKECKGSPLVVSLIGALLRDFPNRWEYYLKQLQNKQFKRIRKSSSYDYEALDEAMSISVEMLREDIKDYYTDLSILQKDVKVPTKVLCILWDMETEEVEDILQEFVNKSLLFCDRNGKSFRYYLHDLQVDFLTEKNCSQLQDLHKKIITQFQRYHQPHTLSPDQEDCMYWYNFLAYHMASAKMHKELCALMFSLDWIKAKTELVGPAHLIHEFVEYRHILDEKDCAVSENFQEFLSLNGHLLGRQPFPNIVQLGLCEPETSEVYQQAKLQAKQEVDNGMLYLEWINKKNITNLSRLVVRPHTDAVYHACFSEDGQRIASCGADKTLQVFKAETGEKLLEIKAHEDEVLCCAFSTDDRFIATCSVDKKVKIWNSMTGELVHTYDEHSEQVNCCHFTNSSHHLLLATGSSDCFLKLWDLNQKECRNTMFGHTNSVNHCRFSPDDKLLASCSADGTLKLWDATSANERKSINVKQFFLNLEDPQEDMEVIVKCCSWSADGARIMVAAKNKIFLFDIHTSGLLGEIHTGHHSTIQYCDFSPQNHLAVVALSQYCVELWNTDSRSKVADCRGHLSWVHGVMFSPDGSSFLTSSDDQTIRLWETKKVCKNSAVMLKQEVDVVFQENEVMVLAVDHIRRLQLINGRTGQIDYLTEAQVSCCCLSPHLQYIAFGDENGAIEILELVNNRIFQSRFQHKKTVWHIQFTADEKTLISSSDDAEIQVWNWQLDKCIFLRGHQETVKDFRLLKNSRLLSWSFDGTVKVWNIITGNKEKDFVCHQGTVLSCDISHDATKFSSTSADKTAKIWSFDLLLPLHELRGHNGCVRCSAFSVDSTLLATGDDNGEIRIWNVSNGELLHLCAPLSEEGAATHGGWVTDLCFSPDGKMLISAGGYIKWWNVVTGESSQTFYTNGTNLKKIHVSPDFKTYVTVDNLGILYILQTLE

[30] = molecular target: Lethal factor (Bacillus anthracis, UniProt P15917); assay: High-throughput multiplex microsphere dose response for inhibitors of toxin protease, specifically Lethal Factor protease, compounds from Cherry Pick 02.; format: functional; conditions: read-out: EC50_MICROM
Lethal factor, sequence (P15917 whole entry): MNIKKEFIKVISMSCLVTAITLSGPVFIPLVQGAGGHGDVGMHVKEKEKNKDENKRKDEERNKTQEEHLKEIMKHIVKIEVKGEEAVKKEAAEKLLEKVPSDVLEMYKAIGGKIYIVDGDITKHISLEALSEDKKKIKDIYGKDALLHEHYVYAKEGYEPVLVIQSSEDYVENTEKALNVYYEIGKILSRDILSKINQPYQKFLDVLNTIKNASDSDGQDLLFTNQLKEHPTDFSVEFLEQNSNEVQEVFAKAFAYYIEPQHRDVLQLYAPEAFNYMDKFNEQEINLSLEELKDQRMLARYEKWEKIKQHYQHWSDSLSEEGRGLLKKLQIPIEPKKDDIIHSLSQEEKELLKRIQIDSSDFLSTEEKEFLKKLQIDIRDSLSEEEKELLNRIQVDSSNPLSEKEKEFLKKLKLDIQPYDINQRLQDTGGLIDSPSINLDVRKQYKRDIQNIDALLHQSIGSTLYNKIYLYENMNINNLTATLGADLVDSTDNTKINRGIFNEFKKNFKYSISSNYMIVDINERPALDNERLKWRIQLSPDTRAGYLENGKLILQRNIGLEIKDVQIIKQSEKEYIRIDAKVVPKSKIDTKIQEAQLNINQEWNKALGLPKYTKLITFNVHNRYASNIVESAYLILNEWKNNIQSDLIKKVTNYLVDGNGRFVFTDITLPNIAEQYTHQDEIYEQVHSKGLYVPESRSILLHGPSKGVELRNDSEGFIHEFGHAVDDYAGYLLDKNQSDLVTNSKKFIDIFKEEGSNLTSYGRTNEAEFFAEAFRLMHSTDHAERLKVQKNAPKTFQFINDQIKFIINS

[31] = molecular target: Mitochondrial peptide methionine sulfoxide reductase (Bos taurus, UniProt P54149); format: functional;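 also: absorbance read-out, biochemical high-throughput dose-response screen for MsrA inhibitors, confirmatory; recombinant bovine MsrA coupled to E. coli TrxB with NADPH and selenocystamine; potency is for inhibitors of MsrA activity on DMSO substrate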
Mitochondrial peptide methionine sulfoxide reductase, sequence (P54149 whole entry): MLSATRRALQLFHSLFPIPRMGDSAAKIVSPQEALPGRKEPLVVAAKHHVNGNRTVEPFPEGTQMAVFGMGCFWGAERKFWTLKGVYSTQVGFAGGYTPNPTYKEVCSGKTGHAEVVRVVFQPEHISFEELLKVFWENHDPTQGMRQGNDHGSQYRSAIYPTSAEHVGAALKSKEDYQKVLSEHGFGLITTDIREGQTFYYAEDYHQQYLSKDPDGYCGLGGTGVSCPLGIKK

Low molecular weight phosphotyrosine protein phosphatase, sequence (P24666 whole entry): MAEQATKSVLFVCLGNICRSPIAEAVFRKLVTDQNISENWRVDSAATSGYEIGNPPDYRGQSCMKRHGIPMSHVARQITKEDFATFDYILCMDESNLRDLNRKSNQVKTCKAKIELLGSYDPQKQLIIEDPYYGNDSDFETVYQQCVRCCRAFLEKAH

CCCOc1ccc(C(=O)NC(=S)N2CCN(c3ncc4c(=O)c(C(=O)O)cn(CC)c4n3)CC2)cc1
active: IC50 [1] 9.82 µM

CCc1cccc2sc(N3CCN(C(=O)c4ccc([N+](=O)[O-])o4)CC3)nc12
active: EC50 [2] 5.4 µM | IC50 [3] 13.3 µM | IC50 [4] 12.9 µM | IC50 [5] 4.71 µM | EC50 [6] 2.38 µM | EC50 [7] 12.1 µM | EC50 [8] 5.99 µM | EC50 [9] 0.307 µM

CCOC(=O)C(C)Sc1nnc(Cc2cc(O)nc(O)n2)n1-c1ccc(Cl)cc1 (stereo unspecified)
inactive: IC50 [10] > 66 µM | IC50 [11] > 66 µM

COc1ccc(Cn2c(SCc3ccc(C)cc3)nc3cc(OC)c(OC)cc3c2=N)cc1Cl
active: EC50 [13] 3.32 µM | EC50 [15] 3.54 µM | EC50 [6] 5.92 µM | EC50 [20] 5.35 µM | EC50 [7] 8.22 µM | EC50 [8] 2.52 µM | AC50 [21] 3.85 µM
inactive: IC50 [12] 15.9 µM | EC50 [16] > 54.7 µM | IC50 [18] > 80 µM | EC50 [19] 15.5 µM | EC50 [22] > 54.7 µM
> 120 µM (not active): EC50 [14] | EC50 [17] | EC50 [23]

CC(=O)Nc1ccc(-c2csc(NC(=O)Nc3ccccc3)n2)cc1
inactive: EC50 [24] > 89.2 µM | IC50 [25] 38.3 µM

Nc1nnc2cc(Br)ccc2n1
inactive: IC50 [10] 35.7 µM | IC50 [11] > 66 µM

C#CCOCCOCCOCCNc1nc(N2CCN(C(=O)CCCCCCCCCCNC(=O)[C@H]([C@@H](C)CC)n3cc(CCCCCN)nn3)CC2)nc(N2CCN(C(=O)CCCCCCCCCCNC(=O)[C@H](CO)n3cc(CCCCCN)nn3)CC2)n1
active: IC50 [12] 9.37 µM | IC50 [26] 2.64 µM | IC50 [28] 4.22 µM | EC50 [16] 9.67 µM | IC50 [29] 25 µM | EC50 [19] > 6.08 µM
inactive: IC50 [27] > 20 µM | EC50 [22] > 56 µM

CCn1cc(C(=O)O)c(=O)c2cc(F)c(N3CCN(C(=S)NC(=O)c4cccc(F)c4)CC3)cc21
active: IC50 [1] 8.61 µM

Cn1ccc2c(-c3ccc(F)nc3)cc3c(c21)C1CCC3C1 (stereo unspecified)
active: EC50 [30] 10.6 µM

COc1cc(OC)c(OC)cc1/C=N/NC(=O)c1ccc(=O)n(C)c1
inactive: IC50 [31] 102 µM
